# Test results published in ChEMBL document CHEMBL5212743, “Selectivity Literature for EUbOPEN Chemogenomics Library wave 3” (2023).
# Columns and labels:
# Histamine H4 receptor = Histamine H4 receptor (Homo sapiens, UniProt Q9H3N8); test: Selectivity interaction (GPCR panel (PDSP screen)) EUB0000342a HRH4
# D(1A) dopamine receptor = D(1A) dopamine receptor (Homo sapiens, UniProt P21728); test: Selectivity interaction (GPCR panel (PDSP screen)) EUB0000342a DRD1
# [1] = target: T1, Gamma-aminobutyric acid receptor subunit alpha-1 (Homo sapiens, UniProt P14867); test: Selectivity interaction (GPCR panel (PDSP screen)) EUB0000306b GABRA1
# T1 sequence (P14867 whole entry): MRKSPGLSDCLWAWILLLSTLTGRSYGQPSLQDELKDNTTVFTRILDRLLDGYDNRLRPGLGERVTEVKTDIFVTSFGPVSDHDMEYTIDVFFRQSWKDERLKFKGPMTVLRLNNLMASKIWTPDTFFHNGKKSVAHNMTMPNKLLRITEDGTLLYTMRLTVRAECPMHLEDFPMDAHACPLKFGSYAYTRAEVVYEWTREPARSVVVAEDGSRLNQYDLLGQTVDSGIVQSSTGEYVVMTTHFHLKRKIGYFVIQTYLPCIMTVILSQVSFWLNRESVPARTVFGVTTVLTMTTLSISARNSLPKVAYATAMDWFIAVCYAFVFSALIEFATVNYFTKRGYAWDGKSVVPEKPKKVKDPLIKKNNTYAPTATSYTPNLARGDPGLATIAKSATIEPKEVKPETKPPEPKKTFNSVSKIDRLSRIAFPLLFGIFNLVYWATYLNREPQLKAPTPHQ
# [2] = target: Phosphatidylinositol 4,5-bisphosphate 3-kinase catalytic subunit alpha isoform (Homo sapiens, UniProt P42336); test: Selectivity interaction (KinomeScan (DiscoverX)) EUB0000306b PIK3CA; conditions: at 1 µM
# [3] = target: T2, Serine/threonine-protein kinase TAO3 (Homo sapiens) (UniProt Q9H2K8); test: Selectivity interaction (KinomeScan (DiscoverX)) EUB0000306b TAOK3; conditions: at 1 µM
# T2 sequence (whole entry): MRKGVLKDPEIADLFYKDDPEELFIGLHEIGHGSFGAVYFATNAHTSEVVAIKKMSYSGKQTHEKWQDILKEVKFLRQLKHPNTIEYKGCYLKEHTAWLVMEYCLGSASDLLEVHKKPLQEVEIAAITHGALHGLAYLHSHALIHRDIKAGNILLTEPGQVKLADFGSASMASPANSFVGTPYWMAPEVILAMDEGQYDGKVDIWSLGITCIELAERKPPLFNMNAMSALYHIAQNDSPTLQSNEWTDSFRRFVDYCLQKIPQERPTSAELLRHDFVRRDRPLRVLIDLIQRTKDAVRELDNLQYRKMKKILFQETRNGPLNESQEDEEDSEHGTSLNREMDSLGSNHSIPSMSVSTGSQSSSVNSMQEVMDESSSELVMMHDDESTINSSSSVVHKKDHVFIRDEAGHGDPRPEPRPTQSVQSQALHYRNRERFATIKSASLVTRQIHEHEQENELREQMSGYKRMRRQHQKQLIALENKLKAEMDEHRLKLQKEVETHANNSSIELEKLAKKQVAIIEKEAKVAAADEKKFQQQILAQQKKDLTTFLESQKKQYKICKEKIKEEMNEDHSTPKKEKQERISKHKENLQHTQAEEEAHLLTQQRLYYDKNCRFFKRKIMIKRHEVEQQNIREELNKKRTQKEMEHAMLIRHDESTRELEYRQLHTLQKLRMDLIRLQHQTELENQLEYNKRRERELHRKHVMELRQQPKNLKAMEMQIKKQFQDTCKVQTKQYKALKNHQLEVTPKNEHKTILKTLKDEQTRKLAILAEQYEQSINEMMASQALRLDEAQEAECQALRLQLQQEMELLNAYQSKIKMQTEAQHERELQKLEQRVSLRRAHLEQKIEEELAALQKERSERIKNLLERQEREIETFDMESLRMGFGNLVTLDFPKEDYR
# [4] = system: Mast/stem cell growth factor receptor Kit (Homo sapiens), P10721 [L576P]; test: Selectivity interaction (KinomeScan (DiscoverX)) EUB0000306b KIT; conditions: at 1 µM
# [5] = target: T3, Alpha-2C adrenergic receptor (Homo sapiens, UniProt P18825); test: Selectivity interaction (GPCR panel (PDSP screen)) EUB0000540a ADRA2C
# T3 sequence (P18825 whole entry): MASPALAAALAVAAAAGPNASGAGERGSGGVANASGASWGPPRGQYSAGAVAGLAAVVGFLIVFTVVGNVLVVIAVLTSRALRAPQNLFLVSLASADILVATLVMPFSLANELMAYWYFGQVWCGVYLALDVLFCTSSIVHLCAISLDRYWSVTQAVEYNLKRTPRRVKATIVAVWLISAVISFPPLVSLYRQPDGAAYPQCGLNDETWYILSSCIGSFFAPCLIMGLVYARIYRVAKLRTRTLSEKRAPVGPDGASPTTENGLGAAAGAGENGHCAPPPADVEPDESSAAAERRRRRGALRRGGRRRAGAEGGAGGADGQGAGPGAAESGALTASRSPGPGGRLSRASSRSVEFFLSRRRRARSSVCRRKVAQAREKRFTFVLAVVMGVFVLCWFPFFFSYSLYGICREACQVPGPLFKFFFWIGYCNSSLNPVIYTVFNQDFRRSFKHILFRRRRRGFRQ
# [6] = target: T4, 5-hydroxytryptamine receptor 2B (Homo sapiens, UniProt P41595); test: Selectivity interaction (GPCR panel (PDSP screen)) EUB0000540a HTR2B
# [7] = target: Sigma intracellular receptor 2 (Homo sapiens, UniProt Q5BJF2); test: Selectivity interaction (GPCR panel (PDSP screen)) EUB0000540a TMEM97
# [8] = target: Sigma non-opioid intracellular receptor 1 (Homo sapiens, UniProt Q99720); test: Selectivity interaction (GPCR panel (PDSP screen)) EUB0000540a SIGMAR1
# [9] = target: 5-hydroxytryptamine receptor 2C (Homo sapiens, UniProt P28335); test: Selectivity interaction (GPCR panel (PDSP screen)) EUB0000540a HTR2C
# [10] = target: T1, Gamma-aminobutyric acid receptor subunit alpha-1; test: Selectivity interaction (GPCR panel (PDSP screen)) EUB0000540a GABRA1
# [11] = target: Serine/threonine-protein kinase WNK2 (Homo sapiens) (UniProt Q9Y3S1); test: Selectivity interaction (GPCR panel (PDSP screen)) EUB0000540a WNK2; conditions: at 1 µM
# [12] = target: 5-hydroxytryptamine receptor 2A (Homo sapiens, UniProt P28223); test: Selectivity interaction (GPCR panel (PDSP screen)) EUB0000540a HTR2A
# [13] = target: T5, Mitogen-activated protein kinase kinase kinase 13 (Homo sapiens) (UniProt O43283); test: Selectivity interaction (KinomeScan (DiscoverX)) EUB0000540a MAP3K13; conditions: at 1 µM
# T5 sequence (whole entry): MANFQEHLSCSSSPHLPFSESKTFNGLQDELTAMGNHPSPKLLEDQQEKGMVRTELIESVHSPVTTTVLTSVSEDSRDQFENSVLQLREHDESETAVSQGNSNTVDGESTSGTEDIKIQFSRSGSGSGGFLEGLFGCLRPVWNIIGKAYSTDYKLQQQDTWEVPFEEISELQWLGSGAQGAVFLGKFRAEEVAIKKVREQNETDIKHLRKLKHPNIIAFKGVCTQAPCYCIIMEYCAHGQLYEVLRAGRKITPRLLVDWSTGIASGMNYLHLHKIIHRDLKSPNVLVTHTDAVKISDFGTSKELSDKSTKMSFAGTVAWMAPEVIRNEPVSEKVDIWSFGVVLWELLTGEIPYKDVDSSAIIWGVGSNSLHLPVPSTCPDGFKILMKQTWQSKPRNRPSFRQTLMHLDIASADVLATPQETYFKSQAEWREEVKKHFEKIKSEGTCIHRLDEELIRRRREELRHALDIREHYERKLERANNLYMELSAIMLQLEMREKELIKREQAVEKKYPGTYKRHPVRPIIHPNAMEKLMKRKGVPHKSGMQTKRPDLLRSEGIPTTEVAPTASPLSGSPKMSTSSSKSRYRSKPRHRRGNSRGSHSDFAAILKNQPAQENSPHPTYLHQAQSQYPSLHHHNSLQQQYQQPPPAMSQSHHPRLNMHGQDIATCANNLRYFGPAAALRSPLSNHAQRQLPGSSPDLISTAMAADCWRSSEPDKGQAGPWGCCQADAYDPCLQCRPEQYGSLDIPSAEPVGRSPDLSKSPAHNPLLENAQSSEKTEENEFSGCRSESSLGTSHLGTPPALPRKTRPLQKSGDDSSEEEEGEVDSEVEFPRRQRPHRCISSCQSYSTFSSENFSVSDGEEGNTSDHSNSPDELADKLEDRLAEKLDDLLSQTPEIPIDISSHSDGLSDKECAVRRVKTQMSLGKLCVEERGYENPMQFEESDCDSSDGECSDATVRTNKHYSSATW
# [14] = target: Mitotic checkpoint serine/threonine-protein kinase BUB1 (Homo sapiens) (UniProt O43683); test: Selectivity interaction (GPCR panel (PDSP screen)) EUB0000540a BUB1; conditions: at 1 µM
# [15] = target: T1, Gamma-aminobutyric acid receptor subunit alpha-1; test: Selectivity interaction (GPCR panel (PDSP screen)) EUB0000304b GABRA1
# [16] = target: High affinity choline transporter 1 (Homo sapiens) (UniProt Q9GZV3); test: Selectivity interaction (CEREP Wide Ligand screening panel (ion channels, receptors, enzymes)) EUB0000304b SLC5A7; conditions: at 10 µM
# [17] = target: Substance-P receptor (Homo sapiens) (UniProt P25103); test: Selectivity interaction (CEREP Wide Ligand screening panel (ion channels, receptors, enzymes)) EUB0000304b TACR1; conditions: at 10 µM
# [18] = target: Melatonin receptor type 1B (Homo sapiens) (UniProt P49286); test: Selectivity interaction (CEREP Wide Ligand screening panel (ion channels, receptors, enzymes)) EUB0000304b MTNR1B; conditions: at 10 µM
# [19] = target: Sodium channel protein type 2 subunit alpha (Homo sapiens, UniProt Q99250); test: Selectivity interaction (CEREP Wide Ligand screening panel (ion channels, receptors, enzymes)) EUB0000304b SCN2A; conditions: at 10 µM
# [20] = target: T6, Prostaglandin G/H synthase 2 (Homo sapiens) (UniProt P35354); test: Selectivity interaction (CEREP Wide Ligand screening panel (ion channels, receptors, enzymes)) EUB0000304b PTGS2; conditions: at 10 µM
# T6 sequence (whole entry): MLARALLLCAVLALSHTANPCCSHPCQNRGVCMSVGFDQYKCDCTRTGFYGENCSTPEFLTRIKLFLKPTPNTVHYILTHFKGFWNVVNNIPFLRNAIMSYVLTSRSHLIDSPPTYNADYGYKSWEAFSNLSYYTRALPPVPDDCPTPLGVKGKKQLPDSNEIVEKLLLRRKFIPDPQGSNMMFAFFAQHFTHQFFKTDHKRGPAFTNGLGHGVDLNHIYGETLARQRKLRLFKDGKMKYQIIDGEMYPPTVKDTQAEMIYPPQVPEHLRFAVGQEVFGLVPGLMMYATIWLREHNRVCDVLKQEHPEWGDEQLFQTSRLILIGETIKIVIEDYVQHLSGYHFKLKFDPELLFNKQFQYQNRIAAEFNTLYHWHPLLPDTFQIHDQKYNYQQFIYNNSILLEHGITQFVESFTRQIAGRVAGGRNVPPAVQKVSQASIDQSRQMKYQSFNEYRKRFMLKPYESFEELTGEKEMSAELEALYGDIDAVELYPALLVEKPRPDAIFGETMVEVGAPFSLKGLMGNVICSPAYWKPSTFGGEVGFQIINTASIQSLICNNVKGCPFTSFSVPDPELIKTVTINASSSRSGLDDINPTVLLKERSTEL
# [21] = target: Kappa-type opioid receptor (Homo sapiens, UniProt P41145); test: Selectivity interaction (CEREP Wide Ligand screening panel (ion channels, receptors, enzymes)) EUB0000304b OPRK1; conditions: at 10 µM
# Mu-type opioid receptor = Mu-type opioid receptor (Homo sapiens, UniProt P35372); test: Selectivity interaction (CEREP Wide Ligand screening panel (ion channels, receptors, enzymes)) EUB0000304b OPRM1; conditions: at 10 µM
# [22] = target: Muscarinic acetylcholine receptor M3 (Homo sapiens) (UniProt P20309); test: Selectivity interaction (CEREP Wide Ligand screening panel (ion channels, receptors, enzymes)) EUB0000304b CHRM3; conditions: at 10 µM
# [23] = target: T4, 5-hydroxytryptamine receptor 2B; test: Selectivity interaction (CEREP Wide Ligand screening panel (ion channels, receptors, enzymes)) EUB0000304b HTR2B; conditions: at 10 µM
# [24] = target: Gastrin/cholecystokinin type B receptor (Homo sapiens) (UniProt P32239); test: Selectivity interaction (CEREP Wide Ligand screening panel (ion channels, receptors, enzymes)) EUB0000304b CCKBR; conditions: at 10 µM
# [25] = target: Adenosine receptor A2b (Homo sapiens) (UniProt P29275); test: Selectivity interaction (CEREP Wide Ligand screening panel (ion channels, receptors, enzymes)) EUB0000304b ADORA2B; conditions: at 10 µM
# T4 sequence (P41595 whole entry): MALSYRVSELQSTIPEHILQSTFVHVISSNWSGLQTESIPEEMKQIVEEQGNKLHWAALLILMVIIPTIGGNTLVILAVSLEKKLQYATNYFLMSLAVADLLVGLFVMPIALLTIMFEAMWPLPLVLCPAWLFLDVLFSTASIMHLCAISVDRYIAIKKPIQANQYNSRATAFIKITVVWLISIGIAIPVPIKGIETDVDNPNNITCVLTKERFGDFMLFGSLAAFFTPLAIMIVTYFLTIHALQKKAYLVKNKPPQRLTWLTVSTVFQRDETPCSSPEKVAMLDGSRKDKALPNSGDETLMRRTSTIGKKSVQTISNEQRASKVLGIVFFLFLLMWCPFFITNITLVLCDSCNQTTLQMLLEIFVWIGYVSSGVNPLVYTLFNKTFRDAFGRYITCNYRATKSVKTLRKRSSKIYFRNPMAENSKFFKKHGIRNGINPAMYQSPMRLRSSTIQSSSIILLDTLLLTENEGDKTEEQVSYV
# Sequence of 5-hydroxytryptamine receptor 2C (P28335 whole entry): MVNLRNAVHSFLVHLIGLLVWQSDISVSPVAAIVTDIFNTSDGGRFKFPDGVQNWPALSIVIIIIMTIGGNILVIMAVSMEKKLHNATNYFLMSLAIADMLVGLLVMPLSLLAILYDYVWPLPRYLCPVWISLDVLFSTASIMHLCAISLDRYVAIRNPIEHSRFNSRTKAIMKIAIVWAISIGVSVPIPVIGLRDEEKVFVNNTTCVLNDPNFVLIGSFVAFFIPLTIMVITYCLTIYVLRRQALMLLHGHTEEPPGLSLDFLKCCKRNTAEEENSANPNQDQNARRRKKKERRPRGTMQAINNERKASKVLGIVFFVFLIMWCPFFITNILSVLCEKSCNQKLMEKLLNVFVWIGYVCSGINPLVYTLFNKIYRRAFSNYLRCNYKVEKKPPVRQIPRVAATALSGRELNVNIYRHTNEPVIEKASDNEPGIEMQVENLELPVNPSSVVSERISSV
# Sequence of Mu-type opioid receptor (P35372 whole entry): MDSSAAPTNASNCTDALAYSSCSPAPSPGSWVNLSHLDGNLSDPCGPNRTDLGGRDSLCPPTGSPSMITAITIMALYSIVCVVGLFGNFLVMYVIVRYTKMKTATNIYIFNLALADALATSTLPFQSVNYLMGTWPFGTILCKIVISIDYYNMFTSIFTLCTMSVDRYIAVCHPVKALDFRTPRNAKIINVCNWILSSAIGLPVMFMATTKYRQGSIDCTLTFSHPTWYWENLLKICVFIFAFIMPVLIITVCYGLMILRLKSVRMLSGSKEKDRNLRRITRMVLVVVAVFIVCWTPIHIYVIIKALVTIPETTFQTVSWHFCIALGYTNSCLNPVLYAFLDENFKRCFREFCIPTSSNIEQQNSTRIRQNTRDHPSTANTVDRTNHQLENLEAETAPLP
# Sequence of 5-hydroxytryptamine receptor 2A (P28223 whole entry): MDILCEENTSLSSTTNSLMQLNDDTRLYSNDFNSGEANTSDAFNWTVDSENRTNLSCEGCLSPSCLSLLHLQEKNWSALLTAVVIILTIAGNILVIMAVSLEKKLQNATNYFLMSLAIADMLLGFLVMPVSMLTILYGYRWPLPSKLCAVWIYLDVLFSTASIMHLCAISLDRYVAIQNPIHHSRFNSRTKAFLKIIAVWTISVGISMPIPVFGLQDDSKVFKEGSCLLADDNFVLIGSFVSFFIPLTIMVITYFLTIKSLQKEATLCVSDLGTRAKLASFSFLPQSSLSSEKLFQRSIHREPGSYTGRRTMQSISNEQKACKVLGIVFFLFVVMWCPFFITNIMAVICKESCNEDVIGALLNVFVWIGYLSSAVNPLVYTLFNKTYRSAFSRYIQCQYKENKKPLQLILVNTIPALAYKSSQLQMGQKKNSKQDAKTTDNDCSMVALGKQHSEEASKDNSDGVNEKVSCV
# Sequence of Phosphatidylinositol 4,5-bisphosphate 3-kinase catalytic subunit alpha isoform (P42336 whole entry, canonical isoform): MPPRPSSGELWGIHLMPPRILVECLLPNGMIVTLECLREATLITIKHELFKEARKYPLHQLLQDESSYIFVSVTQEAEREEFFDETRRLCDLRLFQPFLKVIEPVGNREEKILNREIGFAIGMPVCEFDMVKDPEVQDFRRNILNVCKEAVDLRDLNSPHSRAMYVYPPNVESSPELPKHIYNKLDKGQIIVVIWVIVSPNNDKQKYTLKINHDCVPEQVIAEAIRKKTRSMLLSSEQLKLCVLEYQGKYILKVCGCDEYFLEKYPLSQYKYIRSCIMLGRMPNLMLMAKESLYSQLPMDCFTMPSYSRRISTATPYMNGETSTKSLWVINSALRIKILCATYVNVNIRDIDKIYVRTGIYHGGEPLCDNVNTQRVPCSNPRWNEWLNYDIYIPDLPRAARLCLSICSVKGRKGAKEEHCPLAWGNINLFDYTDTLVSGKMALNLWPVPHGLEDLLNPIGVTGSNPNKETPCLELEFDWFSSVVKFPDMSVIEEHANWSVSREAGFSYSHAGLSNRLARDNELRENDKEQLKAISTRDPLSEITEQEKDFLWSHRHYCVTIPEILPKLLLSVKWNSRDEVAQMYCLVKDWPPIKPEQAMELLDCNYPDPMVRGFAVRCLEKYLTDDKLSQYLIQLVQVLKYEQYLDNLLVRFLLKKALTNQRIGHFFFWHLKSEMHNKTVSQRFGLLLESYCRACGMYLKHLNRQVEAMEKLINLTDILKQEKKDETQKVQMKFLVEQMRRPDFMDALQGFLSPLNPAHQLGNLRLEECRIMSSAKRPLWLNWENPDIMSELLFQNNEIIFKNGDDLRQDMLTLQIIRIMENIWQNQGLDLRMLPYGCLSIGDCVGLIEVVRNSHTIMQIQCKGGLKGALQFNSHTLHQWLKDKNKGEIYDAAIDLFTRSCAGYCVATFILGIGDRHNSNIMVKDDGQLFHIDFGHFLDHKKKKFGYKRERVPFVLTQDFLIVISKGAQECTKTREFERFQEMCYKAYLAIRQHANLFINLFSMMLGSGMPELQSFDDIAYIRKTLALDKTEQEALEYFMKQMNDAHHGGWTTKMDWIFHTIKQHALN
# Sequence of Sodium channel protein type 2 subunit alpha (Q99250 whole entry, looked up): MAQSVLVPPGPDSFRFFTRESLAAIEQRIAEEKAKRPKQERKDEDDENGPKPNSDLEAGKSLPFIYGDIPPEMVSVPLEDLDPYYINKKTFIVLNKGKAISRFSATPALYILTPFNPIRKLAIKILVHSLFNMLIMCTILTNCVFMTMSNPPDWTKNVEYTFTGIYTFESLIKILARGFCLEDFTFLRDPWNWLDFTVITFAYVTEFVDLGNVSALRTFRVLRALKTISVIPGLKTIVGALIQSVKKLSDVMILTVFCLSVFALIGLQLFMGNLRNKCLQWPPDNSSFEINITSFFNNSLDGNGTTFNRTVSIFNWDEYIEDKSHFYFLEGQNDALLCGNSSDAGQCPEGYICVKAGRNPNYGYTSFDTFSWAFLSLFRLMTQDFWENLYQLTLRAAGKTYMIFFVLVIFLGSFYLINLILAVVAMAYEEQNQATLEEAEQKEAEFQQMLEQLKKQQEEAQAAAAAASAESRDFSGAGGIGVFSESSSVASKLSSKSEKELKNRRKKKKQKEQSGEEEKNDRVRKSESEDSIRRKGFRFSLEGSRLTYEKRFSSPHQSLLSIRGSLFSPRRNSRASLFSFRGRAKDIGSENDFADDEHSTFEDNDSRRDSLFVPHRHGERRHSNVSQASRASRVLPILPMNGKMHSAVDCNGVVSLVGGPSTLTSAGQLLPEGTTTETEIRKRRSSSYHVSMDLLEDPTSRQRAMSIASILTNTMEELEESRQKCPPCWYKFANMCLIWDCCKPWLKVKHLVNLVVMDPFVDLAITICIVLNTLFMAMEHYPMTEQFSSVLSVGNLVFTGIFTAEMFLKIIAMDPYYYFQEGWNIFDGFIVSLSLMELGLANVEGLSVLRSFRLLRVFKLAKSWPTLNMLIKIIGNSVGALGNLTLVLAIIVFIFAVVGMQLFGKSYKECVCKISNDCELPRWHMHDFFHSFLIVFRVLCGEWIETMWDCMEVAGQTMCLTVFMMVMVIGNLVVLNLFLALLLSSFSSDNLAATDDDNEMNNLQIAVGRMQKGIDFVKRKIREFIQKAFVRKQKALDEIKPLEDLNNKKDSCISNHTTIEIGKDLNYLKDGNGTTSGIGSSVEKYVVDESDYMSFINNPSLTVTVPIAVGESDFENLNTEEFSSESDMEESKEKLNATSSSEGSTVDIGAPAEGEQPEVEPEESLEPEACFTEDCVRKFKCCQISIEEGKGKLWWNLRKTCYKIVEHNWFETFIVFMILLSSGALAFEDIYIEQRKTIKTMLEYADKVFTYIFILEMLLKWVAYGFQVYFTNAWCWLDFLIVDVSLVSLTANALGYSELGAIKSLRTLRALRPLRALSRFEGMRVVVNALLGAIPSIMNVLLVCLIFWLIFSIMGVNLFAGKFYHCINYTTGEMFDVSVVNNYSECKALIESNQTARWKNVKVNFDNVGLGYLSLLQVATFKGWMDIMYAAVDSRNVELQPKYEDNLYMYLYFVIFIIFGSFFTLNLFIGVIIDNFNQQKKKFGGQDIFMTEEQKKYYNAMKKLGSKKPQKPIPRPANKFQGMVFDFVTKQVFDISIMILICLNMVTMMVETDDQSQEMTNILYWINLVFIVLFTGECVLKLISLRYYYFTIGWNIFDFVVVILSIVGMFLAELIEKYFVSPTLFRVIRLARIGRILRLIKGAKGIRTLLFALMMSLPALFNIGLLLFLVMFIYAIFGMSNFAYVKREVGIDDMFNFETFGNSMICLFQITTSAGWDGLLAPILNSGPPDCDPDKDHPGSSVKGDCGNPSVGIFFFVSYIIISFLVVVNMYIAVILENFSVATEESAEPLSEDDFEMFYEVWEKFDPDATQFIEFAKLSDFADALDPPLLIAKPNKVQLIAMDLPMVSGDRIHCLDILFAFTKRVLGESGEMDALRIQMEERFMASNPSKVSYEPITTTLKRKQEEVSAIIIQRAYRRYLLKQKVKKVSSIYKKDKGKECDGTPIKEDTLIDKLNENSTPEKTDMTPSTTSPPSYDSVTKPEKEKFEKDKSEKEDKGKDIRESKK
# Sequence of Sigma intracellular receptor 2 (Q5BJF2 whole entry): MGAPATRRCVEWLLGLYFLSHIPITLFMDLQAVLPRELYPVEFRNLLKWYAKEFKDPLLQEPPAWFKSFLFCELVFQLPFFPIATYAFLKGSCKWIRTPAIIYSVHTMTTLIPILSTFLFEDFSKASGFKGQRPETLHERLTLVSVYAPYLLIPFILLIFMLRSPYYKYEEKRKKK
compound,measurement,setting,value
O=C(c1ccc(F)cc1)N1CC(COc2ccc(Br)cc2)(C(=O)O)C1 [PF-04475866],Ki,Histamine H4 receptor,> 10000 nM
same,Ki,D(1A) dopamine receptor,> 10000 nM
O=C(Nc1cccnn1)N1CCC(=Cc2cccc(Oc3ccc(C(F)(F)F)cn3)c2)CC1,Ki,[1],1140 nM
same,% of control,[2],45%
same,% of control,[3],42%
same,% of control,[4],0%
O=C(Nc1cccnn1)N1CC(C/C=C/c2cncc(Oc3ccc(C(F)(F)F)cn3)n2)C1,Ki,[5],596 nM
same,Ki,[6],1340 nM
same,Ki,[7],437 nM
same,Ki,[8],472 nM
same,Ki,[9],1660 nM
same,Ki,[10],1140 nM
same,% of control,[11],0%
same,Ki,[12],249 nM
same,% of control,[13],0%
same,% of control,[14],1.4%
C[C@H](c1ccc(F)cc1)N(Cc1cccc(C(=O)O)c1)C(=O)c1cnc2ccccc2c1 [PF-05105679],Ki,[15],1020 nM
same,% of effect,[16],22%
same,% of effect,[17],18%
same,% of effect,[18],32%
same,% of effect,[19],32%
same,% of effect,[20],21%
same,% of effect,[21],20%
same,% of effect,Mu-type opioid receptor,25%
same,% of effect,[22],21%
same,% of effect,[23],26%
same,% of effect,[24],35%
same,% of effect,[25],21%
